# Experimental data: paper PMC7059030, “Design, Synthesis, Molecular Modeling Studies and Biological Evaluation of N′-Arylidene-6-(benzyloxy)-4-oxo-1,4-dihydroquinoline-3-carbohydrazide Derivatives as Novel Anti-HCV Agents” (Iranian Journal of Pharmaceutical Research : IJPR, 2019)
# Read-outs that look alike come from different tables or passages of the source.
# Columns and labels:
# [1] = system: HCV (JFH-1 strain) in Huh7.5 cells; assay: Cell-based HCV replicon assay (RT-qPCR of HCV RNA in infected Huh7.5 cells); parameters: species or system hepatitis C virus; conditions: for EC50: Huh7.5 cells infected with HCV (JFH-1), three days, HCV RNA by quantitative RT-PCR; for SI = CC50/EC50: selectivity index, CC50 (Huh-7.5, XTT) / EC50 (HCV replicon)
# Method: The plasmid encoding the full genome of […] (JFH-1) strain (kindly provided by Wakita T) was used for in-vitro transcription to produce approximately high titer stocks of cell culture-produced virus (HCVcc) as previously described ([37]).
# Huh7.5 cells were seeded into 48-well plates at a density of 3×10^5 cells per well with DMEM containing 10% FBS. After 24 h, huh7.5 cells were infected with HCV viral stock ([…]) for 3 h, at which point the infection was stopped and each well was washed three times by sterile PBS to removed non-penetrated virions and then the fresh medium was added to each well. Subsequently, the infected cells were treated with newly synthesized compounds at different concentrations and the sofosbuvir (Sigma-Aldrich, USA) as a positive control. After three days inoculation, the supernatant medium was collected and the viral RNA was extracted using viral QIAamp viral RNA mini kit (Qiagen, Düsseldorf, Germany), according to the manufacturer protocol. Then, the amount of HCV replicon RNA was determined using Quantitative RT-PCR assay by hepatitis C virus viral load kit (Gene Proof, Czech Republic, with CE, IVD) according to the manufacturer’s instruction.
# The 50% effective concentration (EC50) was determined as the ratio of the normalized HCV RNA amount in treated samples relative to the controls (the samples without compound treatment) using GraphPad Prism5.0 software (GraphPad Software, San Diego, CA).
# Target compounds 13-25 were evaluated in a cell-based viral replication surrogate assay known as the replicon system ([39]). We hypothesized that our quinolone analogues will inhibit NS5B, likely via binding to the active site. To test this hypothesis, FDA-approved active site binding NI, sofosbuvir, was used as a control compound. In parallel, compounds were also evaluated for their cytotoxic effects in the same cell line to ensure that the activity is completely devoid of cytotoxicity effects. The biological results are expressed as EC50, CC50 and SI (selectivity index, given by the CC50/EC50 ratio).
# XTT cytotoxicity assay = format: cell-based; conditions: human, Huh-7.5 cells
# Method: The cytotoxicity of compounds to Huh-7.5 cells was measured in parallel with the HCV replication assay based on the cleavage of the yellow tetrazolium salt XTT® (sodium 3-[1 (phenylaminocarbonyl)-3, 4-tetrazolium]-bis(4-methoxy-6-nitro)benzene sulfonic acid) to generate an orange formazan dye by metabolic function of alive and active cells. Cells were treated with various concentrations ([…]) of compounds and incubated for 72 hours.
# The cell cytotoxicity was determined using XTT proliferation assay kit (Sigma-Aldrich) following the manufacturer’s instructions. The 50% cytotoxic concentration (CC50) was defined as the concentration of compound that reduced cell proliferation by 50%.
# [2] = Hepatitis C virus, Huh7.5, 72 h, read-out: EC50
# [3] = Hepatitis C virus, Huh7.5, 72 h
SMILES,"EC50 [1, 2] [µM]",CC50 at 72 h (XTT cytotoxicity assay) [µM],melting point,SI = CC50/EC50 [1],"EC50 [1, 3] [µM]",EC50 [1] [µM]
"COc1ccccc1C=NNC(=O)c1c[nH]c2ccc(OCc3ccccc3)cc2c1=O [Compound 25, 6-(Benzyloxy)-N′-(2-methoxybenzylidene)-4-oxo-1,4-dihydroquinoline-3-carbohydrazide]",> 200,> 200,299 °C (dec.),,,
"Cc1ccccc1C=NNC(=O)c1c[nH]c2ccc(OCc3ccccc3)cc2c1=O [Compound 23, 6-(Benzyloxy)-N′-(2-methylbenzylidene)-4-oxo-1,4-dihydroquinoline-3-carbohydrazide]",70,160,290 °C (dec.),2.2,,
"CSc1ccc(C=NNC(=O)c2c[nH]c3ccc(OCc4ccccc4)cc3c2=O)cc1 [Compound 14, 6-(Benzyloxy)-N′-(4-(methylthio)benzylidene)-4-oxo-1,4-dihydroquinoline-3-carbohydrazide]",,> 200,160 °C (dec.),,> 200,
"O=C(NN=Cc1cccc(Cl)c1)c1c[nH]c2ccc(OCc3ccccc3)cc2c1=O [Compound 21, 6-(Benzyloxy)-N′-(3-chlorobenzylidene)-4-oxo-1,4-dihydroquinoline-3-carbohydrazide]",35,90,291 °C (dec.),2.5,,
"O=C(NN=Cc1ccccc1F)c1c[nH]c2ccc(OCc3ccccc3)cc2c1=O [Compound 20, 6-(Benzyloxy)-N′-(2-fluorobenzylidene)-4-oxo-1,4-dihydroquinoline-3-carbohydrazide]",,> 200,324 °C (dec.),> 2,70,120
"O=C(NN=Cc1ccc(F)cc1)c1c[nH]c2ccc(OCc3ccccc3)cc2c1=O [Compound 15, 6-(Benzyloxy)-N′-(4-fluorobenzylidene)-4-oxo-1,4-dihydroquinoline-3-carbohydrazide]",> 200,> 200,305 °C (dec.),,,
"O=C(NN=Cc1ccccc1)c1c[nH]c2ccc(OCc3ccccc3)cc2c1=O [Compound 13, N′-Benzylidene-6-(benzyloxy)-4-oxo-1,4-dihydroquinoline-3-carbohydrazide]",> 200,> 200,130 °C (dec.),,,
"COc1cccc(C=NNC(=O)c2c[nH]c3ccc(OCc4ccccc4)cc3c2=O)c1 [Compound 24, 6-(Benzyloxy)-N′-(3-methoxybenzylidene)-4-oxo-1,4-dihydroquinoline-3-carbohydrazide]",120,> 200,280 °C (dec.),>1.8,,
"O=C(NN=Cc1ccc(Cl)cc1)c1c[nH]c2ccc(OCc3ccccc3)cc2c1=O [Compound 16, 6-(Benzyloxy)-N′-(4-chlorobenzylidene)-4-oxo-1,4-dihydroquinoline-3-carbohydrazide]",> 200,> 200,329 °C (dec.),,,
"O=C(NN=Cc1cccc(F)c1)c1c[nH]c2ccc(OCc3ccccc3)cc2c1=O [Compound 19, 6-(Benzyloxy)-N′-(3-fluorobenzylidene)-4-oxo-1,4-dihydroquinoline-3-carbohydrazide]",> 200,> 200,305 °C (dec.),,,
"CC(C)OC(=O)[C@H](C)N[P@](=O)(OC[C@H]1O[C@@H](n2ccc(=O)[nH]c2=O)[C@](C)(F)[C@@H]1O)Oc1ccccc1 [Sofosbuvir, sofosbuvir, reference compound]",5,> 500,,> 100,,
"COc1ccc(C=NNC(=O)c2c[nH]c3ccc(OCc4ccccc4)cc3c2=O)cc1 [Compound 18, 6-(Benzyloxy)-N′-(4-methoxybenzylidene)-4-oxo-1,4-dihydroquinoline-3-carbohydrazide]",,> 200,154 °C (dec.),> 2,,
"Cc1cccc(C=NNC(=O)c2c[nH]c3ccc(OCc4ccccc4)cc3c2=O)c1 [Compound 22, 6-(Benzyloxy)-N′-(3-methylbenzylidene)-4-oxo-1,4-dihydroquinoline-3-carbohydrazide]",45,100,310 °C (dec.),2.2,,
"Cc1ccc(C=NNC(=O)c2c[nH]c3ccc(OCc4ccccc4)cc3c2=O)cc1 [Compound 17, 6-(Benzyloxy)-N′-(4-methylbenzylidene)-4-oxo-1,4-dihydroquinoline-3-carbohydrazide]",,> 200,330 °C (dec.),,> 200,
